Results: publication PMC8392721 (Journal of medicinal chemistry, 2021)

Key:
hNatA = target: T1, hNatA (Homo sapiens, UniProt P41227); assay: Selectivity assay, NatA; format: biochemical
T1 sequence (P41227 1-160 limits assumed): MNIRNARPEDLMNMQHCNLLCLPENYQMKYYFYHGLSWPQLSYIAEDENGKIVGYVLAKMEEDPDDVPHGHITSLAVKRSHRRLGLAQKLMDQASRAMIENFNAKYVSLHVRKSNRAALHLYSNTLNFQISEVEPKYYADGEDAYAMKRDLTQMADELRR
T1 sequence (Q9BXJ9 1-866 partner): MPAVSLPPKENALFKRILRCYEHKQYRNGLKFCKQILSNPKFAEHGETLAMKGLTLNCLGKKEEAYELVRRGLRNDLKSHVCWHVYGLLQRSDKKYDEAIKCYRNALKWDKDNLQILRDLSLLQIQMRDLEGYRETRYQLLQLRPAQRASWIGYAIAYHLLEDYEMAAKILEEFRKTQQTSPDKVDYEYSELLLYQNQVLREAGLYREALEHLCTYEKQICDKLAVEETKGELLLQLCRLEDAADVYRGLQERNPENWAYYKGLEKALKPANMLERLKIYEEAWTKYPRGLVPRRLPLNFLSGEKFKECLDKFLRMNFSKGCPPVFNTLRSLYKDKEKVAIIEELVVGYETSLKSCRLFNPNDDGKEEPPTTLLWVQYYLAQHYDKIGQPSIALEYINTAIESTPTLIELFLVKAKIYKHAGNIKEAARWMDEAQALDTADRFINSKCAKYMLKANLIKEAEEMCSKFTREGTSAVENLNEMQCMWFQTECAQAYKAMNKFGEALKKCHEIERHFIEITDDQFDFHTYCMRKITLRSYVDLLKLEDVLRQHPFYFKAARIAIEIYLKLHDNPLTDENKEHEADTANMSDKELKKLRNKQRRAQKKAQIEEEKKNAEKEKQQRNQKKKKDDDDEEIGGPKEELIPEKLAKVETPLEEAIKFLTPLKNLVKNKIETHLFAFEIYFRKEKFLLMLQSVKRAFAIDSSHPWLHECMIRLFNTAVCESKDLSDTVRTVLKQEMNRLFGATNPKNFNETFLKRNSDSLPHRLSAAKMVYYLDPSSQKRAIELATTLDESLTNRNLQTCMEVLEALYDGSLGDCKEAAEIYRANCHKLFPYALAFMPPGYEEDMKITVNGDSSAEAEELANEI

hMOF = target: T2, hMOF (Homo sapiens, UniProt Q9H7Z6); assay: Selectivity assay, hMOF; format: biochemical
T2 sequence (Q9H7Z6 1-458): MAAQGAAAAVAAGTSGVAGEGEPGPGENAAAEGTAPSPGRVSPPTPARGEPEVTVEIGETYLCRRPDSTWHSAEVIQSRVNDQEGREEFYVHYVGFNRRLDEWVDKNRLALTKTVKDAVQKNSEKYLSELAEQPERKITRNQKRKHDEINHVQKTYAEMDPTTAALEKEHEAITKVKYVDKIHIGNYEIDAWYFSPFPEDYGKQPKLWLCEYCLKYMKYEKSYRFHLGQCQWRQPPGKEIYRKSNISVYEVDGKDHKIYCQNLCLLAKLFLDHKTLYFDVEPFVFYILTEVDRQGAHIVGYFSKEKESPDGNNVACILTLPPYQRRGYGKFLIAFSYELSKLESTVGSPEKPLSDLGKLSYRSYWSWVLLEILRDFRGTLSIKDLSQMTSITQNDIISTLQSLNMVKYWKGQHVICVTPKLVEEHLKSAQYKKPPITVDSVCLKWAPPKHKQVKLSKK

hNatD [1] = target: T3, hNatD (Homo sapiens, UniProt Q86UY6); settings: radioactive assay; acetyl versus propionyl linker, tripeptide SGR
hNatB = hNatB (Homo sapiens, UniProt P61599)
SpNatC [2] = target: SpNatC (Schizosaccharomyces pombe, UniProt O74311); settings: at 10 μM; n = 3
SpNatC [3] = settings: from no inhibition at 10 μM
hNatE = hNatE (Homo sapiens, UniProt Q9GZZ1)
PCAF = PCAF (Homo sapiens, UniProt Q92831)
NatD = NatD (Homo sapiens, UniProt Q86UY6); assay: biochemical
hNatD [4] = target: T3, hNatD; assay: biochemical

Chain of PCAF (Q92831 whole entry): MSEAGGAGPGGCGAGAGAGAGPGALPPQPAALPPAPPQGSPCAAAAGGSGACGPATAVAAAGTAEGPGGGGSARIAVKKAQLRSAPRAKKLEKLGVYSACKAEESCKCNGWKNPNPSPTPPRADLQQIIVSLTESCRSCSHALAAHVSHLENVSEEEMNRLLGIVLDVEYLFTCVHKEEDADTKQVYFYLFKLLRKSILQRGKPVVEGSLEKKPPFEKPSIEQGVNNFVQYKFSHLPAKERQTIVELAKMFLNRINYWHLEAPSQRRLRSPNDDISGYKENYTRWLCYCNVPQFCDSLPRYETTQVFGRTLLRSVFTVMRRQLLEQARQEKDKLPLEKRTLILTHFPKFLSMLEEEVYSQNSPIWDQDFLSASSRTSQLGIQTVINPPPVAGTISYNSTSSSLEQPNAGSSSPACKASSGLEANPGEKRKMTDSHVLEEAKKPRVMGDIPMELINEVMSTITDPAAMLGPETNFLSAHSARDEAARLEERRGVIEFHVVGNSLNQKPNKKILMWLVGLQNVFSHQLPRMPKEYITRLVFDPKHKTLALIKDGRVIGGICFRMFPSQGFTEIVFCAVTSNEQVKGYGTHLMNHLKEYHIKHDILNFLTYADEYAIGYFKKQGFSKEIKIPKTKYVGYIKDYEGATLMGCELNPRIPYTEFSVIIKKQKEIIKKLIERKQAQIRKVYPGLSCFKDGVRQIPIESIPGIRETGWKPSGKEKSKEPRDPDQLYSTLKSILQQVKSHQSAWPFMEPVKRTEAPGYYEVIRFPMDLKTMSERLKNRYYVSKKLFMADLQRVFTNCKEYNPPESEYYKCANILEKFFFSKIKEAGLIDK
Chain of hNatE (Q9GZZ1 whole entry, one chain of several): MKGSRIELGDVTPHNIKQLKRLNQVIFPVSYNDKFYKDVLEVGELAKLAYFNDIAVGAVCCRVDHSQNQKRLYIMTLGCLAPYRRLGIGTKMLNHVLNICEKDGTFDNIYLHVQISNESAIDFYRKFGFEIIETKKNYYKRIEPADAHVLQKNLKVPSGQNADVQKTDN
Chain of hNatB (P61599 1-163 limits assumed): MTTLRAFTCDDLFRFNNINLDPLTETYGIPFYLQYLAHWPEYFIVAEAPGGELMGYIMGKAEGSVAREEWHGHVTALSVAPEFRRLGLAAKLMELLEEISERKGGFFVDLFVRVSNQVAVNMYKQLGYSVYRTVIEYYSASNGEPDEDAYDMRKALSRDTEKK
Chain of hNatB (Q14CX7 whole entry partner): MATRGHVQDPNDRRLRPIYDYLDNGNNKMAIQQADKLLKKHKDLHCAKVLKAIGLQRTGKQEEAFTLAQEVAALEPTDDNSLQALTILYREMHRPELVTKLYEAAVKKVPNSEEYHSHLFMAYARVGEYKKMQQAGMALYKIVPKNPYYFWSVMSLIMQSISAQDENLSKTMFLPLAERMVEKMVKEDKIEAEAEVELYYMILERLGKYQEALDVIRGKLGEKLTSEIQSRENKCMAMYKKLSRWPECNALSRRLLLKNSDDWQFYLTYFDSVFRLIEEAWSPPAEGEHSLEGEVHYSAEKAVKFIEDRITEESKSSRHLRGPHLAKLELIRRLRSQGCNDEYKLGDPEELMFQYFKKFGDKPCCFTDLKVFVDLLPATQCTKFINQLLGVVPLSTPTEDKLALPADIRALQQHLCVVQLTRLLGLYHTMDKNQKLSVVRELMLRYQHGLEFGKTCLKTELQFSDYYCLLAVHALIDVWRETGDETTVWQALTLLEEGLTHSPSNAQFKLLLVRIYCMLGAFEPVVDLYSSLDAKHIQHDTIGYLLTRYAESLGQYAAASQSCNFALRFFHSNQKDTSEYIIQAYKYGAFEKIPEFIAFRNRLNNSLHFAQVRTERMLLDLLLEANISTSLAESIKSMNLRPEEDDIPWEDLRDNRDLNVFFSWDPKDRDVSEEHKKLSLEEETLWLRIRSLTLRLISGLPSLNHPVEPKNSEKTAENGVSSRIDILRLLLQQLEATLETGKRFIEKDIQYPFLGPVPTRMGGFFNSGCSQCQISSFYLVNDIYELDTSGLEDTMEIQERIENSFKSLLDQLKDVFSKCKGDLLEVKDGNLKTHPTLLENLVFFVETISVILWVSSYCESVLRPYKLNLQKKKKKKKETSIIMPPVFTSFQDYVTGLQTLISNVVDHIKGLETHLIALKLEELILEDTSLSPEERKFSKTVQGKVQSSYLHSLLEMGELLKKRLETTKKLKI
Chain of SpNatC (Schizosaccharomyces pombe, UniProt O74311) (O74311 whole entry): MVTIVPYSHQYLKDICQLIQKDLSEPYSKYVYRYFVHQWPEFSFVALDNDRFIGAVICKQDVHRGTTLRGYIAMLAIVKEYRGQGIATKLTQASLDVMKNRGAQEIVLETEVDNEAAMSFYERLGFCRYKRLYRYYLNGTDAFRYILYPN

Compound: CC(C)(COP(=O)(O)OP(=O)(O)OC[C@H]1O[C@@H](n2cnc3c(N)ncnc32)[C@H](O)[C@@H]1OP(=O)(O)O)[C@@H](O)C(=O)NCCC(=O)NCCSCC(=O)N[C@@H](CO)C(=O)NCC(=O)N[C@@H](CCCNC(=N)N)C(N)=O [Compound 7, CoA-C2-SGR]
- IC50 (hNatA): > 100 nM
- IC50 (hMOF): > 100 nM
- fold more potent than 8 (hNatD [1]): 2 fold
- inhibition towards NatB (hNatB; at 10 μM, n = 3): did not show any inhibition
- selectivity for NatD over NatB (hNatB; from no inhibition at 10 μM): over 10,000 fold
- inhibition towards NatC (SpNatC [2]): did not show any inhibition
- selectivity for NatD over NatC (SpNatC [3]): over 10,000 fold
- inhibition towards NatE (hNatE; at 10 μM, n = 3): did not show any inhibition
- selectivity for NatD over NatE (hNatE; from no inhibition at 10 μM): over 10,000 fold
- inhibition towards PCAF (PCAF; at 10 μM, n = 3): did not show any inhibition
- selectivity for NatD over PCAF (PCAF; from no inhibition at 10 μM): over 10,000 fold
- IC50 (NatD): 29 ± 5.6 nM
- IC50 (hNatD [4]): 16 ± 4.9 nM
